Molecules are shown by their SMILES.

The text below walks through data of PMC5848469 (Combinatorial chemistry & high throughput screening, 2015).

Assay [1] deals with mammalian tubulin. To be noted: fold less potency than on hookworm tubulin; cited from earlier work.
Assay [2] addresses KIT (Homo sapiens, UniProt P10721). The assay is described as follows: Kinase active site-directed competition binding assay. To be noted: read-out: Percent Control at 10μM.
Assay [3] has as its system hookworm tubulin. To be noted: cited from earlier work.
In assay [4] the target is KIT (D816V) (Homo sapiens, UniProt P10721, D816V). The assay is described as follows: Kinase active site-directed competition binding assay. To be noted: read-out: Percent Control at 10μM.
Chain of KIT (D816V) (P10721 26-976 D816V): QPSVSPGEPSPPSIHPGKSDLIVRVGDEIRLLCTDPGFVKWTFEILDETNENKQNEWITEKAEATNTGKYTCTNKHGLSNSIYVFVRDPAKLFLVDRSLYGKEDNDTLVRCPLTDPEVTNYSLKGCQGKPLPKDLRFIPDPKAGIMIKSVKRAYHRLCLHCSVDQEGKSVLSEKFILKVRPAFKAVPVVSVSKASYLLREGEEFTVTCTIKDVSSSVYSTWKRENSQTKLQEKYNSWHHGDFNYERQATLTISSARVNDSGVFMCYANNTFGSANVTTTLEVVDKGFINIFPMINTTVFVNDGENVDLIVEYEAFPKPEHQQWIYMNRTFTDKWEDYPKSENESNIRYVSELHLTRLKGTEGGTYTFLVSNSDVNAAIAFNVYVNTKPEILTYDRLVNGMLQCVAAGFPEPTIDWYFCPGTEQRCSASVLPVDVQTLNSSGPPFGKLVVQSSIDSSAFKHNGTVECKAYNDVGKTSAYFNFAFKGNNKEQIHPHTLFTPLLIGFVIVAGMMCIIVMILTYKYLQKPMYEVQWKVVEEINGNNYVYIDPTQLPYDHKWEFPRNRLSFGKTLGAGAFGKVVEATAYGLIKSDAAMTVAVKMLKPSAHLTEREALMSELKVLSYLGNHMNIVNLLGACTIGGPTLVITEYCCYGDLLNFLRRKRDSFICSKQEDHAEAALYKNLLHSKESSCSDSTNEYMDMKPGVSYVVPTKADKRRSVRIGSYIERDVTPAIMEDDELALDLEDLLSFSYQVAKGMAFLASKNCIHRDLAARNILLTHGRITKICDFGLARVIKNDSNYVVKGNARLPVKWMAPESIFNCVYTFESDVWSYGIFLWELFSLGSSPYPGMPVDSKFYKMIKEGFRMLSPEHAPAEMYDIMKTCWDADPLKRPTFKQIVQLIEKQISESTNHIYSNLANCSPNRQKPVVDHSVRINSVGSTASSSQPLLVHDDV

Chain of KIT (P10721 26-976): as the sequence (P10721 26-976 D816V) above, with V791D counted along it

In the case of `COC(=O)Nc1nc2ccc(C(=O)c3ccccc3)cc2[nH]1` [MBZ, mebendazole], in assay [1], the “potency on mammalian tubulin relative to hookworm tubulin (fold less)” value is given as 1000 x. In addition, the remaining binding at 10 µM in assay [2] turned out to be 7.4%; in assay [4], 33%. Further, the “inhibition of hookworm tubulin (potency in words)” value in assay [3] is recorded as “potent nanomolar inhibition”.
